Earlier results, collected in patent US20090298940A1, “All Natural Antifungal And Antimicrobial Composition And Method Thereof” (priority 2008, published 2009).

Experiments:
[1] = at 20° C.
[2] = when administered internally

## C/C=C/C=C/C(=O)[O-].[K+] [potassium sorbate, potassium (E,E)-hexa-2,4-dienoate]
[1]
  solubility in water: 58.2%
[2]
  tolerability: well tolerated
